One may read the IC50 as the concentration that gives 50% inhibition. For orientation: inhibition means how much of the control response was suppressed. Low values mean a response near the control, high ones a response far below the control.

The first experiment has as its target T1, rat NaPi-2b (Rattus norvegicus, UniProt Q9JJ09).
T1 construct: expressed in transfected cells; host or cells: Xenopus oocytes injected with cRNA
T1 sequence (Q9JJ09 1-695): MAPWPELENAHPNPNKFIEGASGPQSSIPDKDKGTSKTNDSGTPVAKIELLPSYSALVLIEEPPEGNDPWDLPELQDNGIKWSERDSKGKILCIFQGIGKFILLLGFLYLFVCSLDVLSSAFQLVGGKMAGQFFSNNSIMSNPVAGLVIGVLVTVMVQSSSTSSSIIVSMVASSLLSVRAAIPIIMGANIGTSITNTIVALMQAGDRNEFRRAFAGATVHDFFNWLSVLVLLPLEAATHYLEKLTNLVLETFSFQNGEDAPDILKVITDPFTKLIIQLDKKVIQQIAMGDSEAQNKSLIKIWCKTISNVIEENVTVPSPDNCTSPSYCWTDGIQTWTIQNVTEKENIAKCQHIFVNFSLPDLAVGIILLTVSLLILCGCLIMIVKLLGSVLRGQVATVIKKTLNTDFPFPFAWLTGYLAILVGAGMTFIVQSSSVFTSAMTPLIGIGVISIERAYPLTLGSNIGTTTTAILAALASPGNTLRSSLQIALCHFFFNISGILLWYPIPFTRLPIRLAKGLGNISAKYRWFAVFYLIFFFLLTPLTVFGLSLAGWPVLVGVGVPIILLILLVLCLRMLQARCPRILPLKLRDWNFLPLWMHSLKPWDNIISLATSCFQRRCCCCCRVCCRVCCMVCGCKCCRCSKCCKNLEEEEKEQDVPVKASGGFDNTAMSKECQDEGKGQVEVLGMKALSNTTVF
The experiment in a line: Sodium-dependent phosphate uptake of Xenopus oocytes which expressed NaPi-2b (32P). Type of experiment: cell-based. The conditions noted are these: Xenopus oocytes expressing rat NaPi-2b, 32P radioactive phosphorus; read-out: IC50 (phosphate uptake inhibitory activity). A digest of the protocol: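 Percent inhibition at 300 μM and 100 μM comes from the same inhibition curve of 32P uptake. Assay used oocytes expressing rat NaPi-2b after 2 days of culture.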
For the molecule `O=C(Nc1ccc(Br)cc1C(=O)N/N=C/c1ccc(Cl)cc1)c1ccc(F)cc1` [Compound 108, N-[4-Bromo-2-(4-chloro-benzylidene-hydrazinocarbonyl)-phenyl]-4-fluoro-benzamide], the IC50 was 3.83 µM. Take `Cc1cccc(/C=N/NC(=O)c2cc(Br)ccc2NC(=O)c2ccc(CN3CCC(N4CCCCC4)CC3)cc2)c1` [Compound 310, 4-[1,4′]Bipiperidinyl-1′-ylmethyl-N-[4-bromo-2-(3-methyl-benzylidene-hydrazinocarbonyl)-phenyl]-benzamide]: the IC50 worked out at 7.82 µM. Same read-out and setting: the same measure for `CCN(CCO)Cc1ccc(C(=O)Nc2ccc(Cl)cc2C(=O)N/N=C/c2cccc(O)c2)cc1` [Compound 440, N-[4-Chloro-2-(3-hydroxy-benzylidene-hydrazinocarbonyl)-phenyl]-4-{[ethyl-(2-hydroxy-ethyl)-amino]-methyl}-benzamide]: 32.4 µM; for `O=C(N/N=C/c1cccc(F)c1)c1cc(Br)ccc1NC(=O)C1CCCCC1` [Compound 509, Cyclohexanecarboxylic acid [4-bromo-2-(3-fluoro-benzylidene-hydrazinocarbonyl)-phenyl]-amide]: 13.6 µM; for `CCN(CC)CCNCc1cccc(C(=O)Nc2scc(C)c2C(=O)N/N=C/c2ccc(OC)cc2)c1` [Compound 586, 3-[(2-Diethylamino-ethylamino)-methyl]-N-[3-(4-methoxy-benzylidene-hydrazinocarbonyl)-4-methyl-thiophen-2-yl]-benzamide]: less than 3 µM. Same read-out and setting: the result for `O=C(Nc1ccc(Cl)cc1C(=O)N/N=C/c1ccc(Cl)c(C(F)(F)F)c1)c1cccc(CN(CCO)CCO)c1` [Compound 407, 3-{[Bis-(2-hydroxy-ethyl)-amino]-methyl}-N-[4-chloro-2-(4-chloro-3-trifluoromethyl-benzylidene-hydrazinocarbonyl)-phenyl]-benzamide] reads 0.57 µM; that for `C/C(=N\NC(=O)c1cc(Br)ccc1NC(=O)c1cccc(CN(CC(C)O)CC(C)O)c1)c1cccc(F)c1` (stereo not drawn) [Compound 996, 3-{[Bis-(2-hydroxy-propyl)-amino]-methyl}-N-{4-bromo-2-[1-(3-fluoro-phenyl)-ethylidene-hydrazinocarbonyl]-phenyl}-benzamide], 2.66 µM; that for `Cc1csc(NC(=O)c2cccc(CSc3nc[nH]n3)c2)c1C(=O)N/N=C/c1cccc(F)c1` [Compound 554, N-[3-(3-Fluoro-benzylidene-hydrazinocarbonyl)-4-methyl-thiophen-2-yl]-3-(1H-[1,2,4]triazol-3-ylsulfanylmethyl)-benzamide], 1.46 µM. `O=C(Nc1ccc(Br)cc1C(=O)N/N=C/c1cccc(F)c1)c1ccc(CN2CCC(O)CC2)cc1` [Compound 328, N-[4-Bromo-2-(3-fluoro-benzylidene-hydrazinocarbonyl)-phenyl]-4-(4-hydroxy-piperidin-1-ylmethyl)-benzamide]: the IC50 came to 1.15 µM. Same read-out and setting: the same measure for `O=C(Nc1ccc(Br)cc1C(=O)N/N=C/c1ccc(Cl)c(C(F)(F)F)c1)c1ccc(CN2CCN(CCO)CC2)cc1` [Compound 321, N-[4-Bromo-2-(4-chloro-3-trifluoromethyl-benzylidene-hydrazinocarbonyl)-phenyl]-4-[4-(2-hydroxy-ethyl)-piperazin-1-ylmethyl]-benzamide]: 2.66 µM; for `O=C(Nc1ccc(Br)cc1C(=O)N/N=C/C=C/c1ccccc1)c1ccncc1` [Compound 347, N-[4-Bromo-2-(3-phenyl-allylidene-hydrazinocarbonyl)-phenyl]-isonicotinamide]: 4.91 µM. Same read-out and setting: the result for `O=C(Nc1ccc(N2CCCCC2)cc1C(=O)N/N=C/c1ccc(F)cc1)c1cccc(CN2CCN(CCO)CC2)c1` [Compound 866, N-[2-(4-Fluoro-benzylidene-hydrazinocarbonyl)-4-piperidin-1-yl-phenyl]-3-[4-(2-hydroxy-ethyl)-piperazin-1-ylmethyl]-benzamide] reads 1.92 µM; that for `COc1ccc(/C=N/NC(=O)c2c(NC(=O)c3cccc(CN4CCC(CO)CC4)c3)sc3ccccc23)cc1` [Compound 803, 3-(4-Hydroxymethyl-piperidin-1-ylmethyl)-N-[3-(4-methoxy-benzylidene-hydrazinocarbonyl)-benzo[b]thiophen-2-yl]-benzamide], 4.92 µM; that for `Cc1ccc(CNNC(=O)c2c(C)csc2NC(=O)c2cccc(CSCCCO)c2)cc1C` [Compound 645, N-{3-[N′-(3,4-Dimethyl-benzyl)-hydrazinocarbonyl]-4-methyl-thiophen-2-yl}-3-(3-hydroxy-propylsulfanylmethyl)-benzamide], less than 3 µM. Same read-out and setting: the same measure for `Cc1ccc(/C=N/NC(=O)c2cc(Br)ccc2NC(=O)c2ccc(CN3CCC(CO)CC3)cc2)cc1C` [Compound 332, N-[4-Bromo-2-(3,4-dimethyl-benzylidene-hydrazinocarbonyl)-phenyl]-4-(4-hydroxymethyl-piperidin-1-ylmethyl)-benzamide]: 2.87 µM; for `O=C(O)CCSCc1cccc(C(=O)Nc2ccc(N3CCCCC3)cc2C(=O)N/N=C/c2ccc(F)cc2)c1` [Compound 888, 3-{3-[2-(4-Fluoro-benzylidene-hydrazinocarbonyl)-4-piperidin-1-yl-phenylcarbamoyl]-benzylsulfanyl}-propionic acid]: 2.55 µM; for `COc1ccc(C(=O)Nc2ccccc2C(=O)N/N=C/c2cc(C)ccc2C)cc1OC` [Compound 43, N-[2-(2,5-Dimethyl-benzylidene-hydrazinocarbonyl)-phenyl]-3,4-dimethoxy-benzamide]: 20.7 µM.

As to `CCN(CCO)Cc1ccc(C(=O)Nc2ccc(Cl)cc2C(=O)N/N=C/c2ccc(F)cc2)cc1` [Compound 433, N-[4-Chloro-2-(4-fluoro-benzylidene-hydrazinocarbonyl)-phenyl]-4-{[ethyl-(2-hydroxy-ethyl)-amino]-methyl}-benzamide], the 50% inhibitory concentration (IC50) stood at 14.3 µM.

As for `COc1ccc(C(=O)Nc2ccccc2C(=O)N/N=C/c2cccc(C)c2)cc1OC` [Compound 20, 3,4-Dimethoxy-N-[2-(3-methyl-benzylidene-hydrazinocarbonyl)-phenyl]-benzamide], the IC50 is 2.83 µM.

As for `CCN(CC)CCN(CCN(CC)CC)Cc1cccc(C(=O)Nc2sc3c(c2C(=O)N/N=C/c2ccc(OC)cc2)CCCC3)c1` [Compound 850, 3-{[Bis-(2-diethylamino-ethyl)-amino]-methyl}-N-[3-(4-methoxy-benzylidene-hydrazinocarbonyl)-4,5,6,7-tetrahydro-benzo[b]-thiophen-2-yl]-benzamide], the IC50 turned out to be 3.1 µM. On the same count and under the same terms, the same measure for `CCN(CC)CCNCc1ccc(C(=O)Nc2ccc(Br)cc2C(=O)N/N=C/c2cccc(C)c2)cc1` [Compound 294, N-[4-Bromo-2-(3-methyl-benzylidene-hydrazinocarbonyl)-phenyl]-4-[(2-diethylamino-ethylamino)-methyl]-benzamide]: 7.8 µM. On to `Cc1ccc(/C=N/NC(=O)c2cc(Cl)ccc2NC(=O)c2ccccn2)cc1` [Compound 362, Pyridin-2-carboxylic acid [4-chloro-2-(4-methyl-benzylidene-hydrazinocarbonyl)-phenyl]-amide], for which the IC50 is less than 1 µM. As to `O=C(Nc1ccc(Cl)cc1C(=O)N/N=C/c1ccc(Cl)c(C(F)(F)F)c1)c1ccncc1` [Compound 194, N-[4-Chloro-2-(4-chloro-3-trifluoromethyl-benzylidene-hydrazinocarbonyl)-phenyl]-isonicotinamide], the IC50 was found to be 7.36 µM. Still for that read-out and setting: the same measure for `COc1ccc(/C=N/NC(=O)c2ccccc2NC(=O)c2ccc(F)cc2)cc1Br` [Compound 102, N-[2-(3-Bromo-4-methoxy-benzylidene-hydrazinocarbonyl)-phenyl]-4-fluoro-benzamide]: 5.58 µM.

As for `Cc1ccc(/C=N/NC(=O)c2cccnc2NC(=O)c2cccc(CN(CC(C)O)CC(C)O)c2)cc1C` (stereo not drawn) [Compound 966, 3-{[Bis-(2-hydroxy-propyl)-amino]-methyl}-N-[3-(3,4-dimethyl-benzylidene-hydrazinocarbonyl)-pyridin-2-yl]-benzamide], the IC50 was found to be 16 µM.

The experiment is the same for the next values; noted with them: phosphate uptake, oocytes expressing rat NaPi-2b; 300 μM, determined from inhibition curve.
On to `Cc1cccc(/C=N/NC(=O)c2cc(Cl)ccc2NC(=O)c2cccc(CN(C)CCCCCCN(C)Cc3cccc(C(=O)Nc4ccc(Cl)cc4C(=O)N/N=C/c4cccc(C)c4)c3)c2)c1` [Compound 705, N1-[4-Chloro-2-({2-[(E)-1-(3-methylphenyl)methylidene]hydrazino}carbonyl}phenyl}-3-{[{6-[(3-{[4-chloro-2-({2-[(E)-1-(3-methylphenyl)methylidene]hydrazino}carbonyl}-anilino}carbonyl}benzyl}(methyl)amino)hexyl)(methyl)amino]methyl]-benzamide], for which the inhibition at 300 µM was 44.7%. `COc1ccc(C(=O)Nc2ccccc2C(=O)N/N=C/c2ccccc2Cl)cc1OC` [Compound 231, N-[2-(2-Chloro-benzylidene-hydrazinocarbonyl)-phenyl]-3,4-dimethoxy-benzamide] gave an inhibition at 300 µM of 32.8%.

Values taken from patent publication US8134015B2, “Compound inhibiting in vivo phosphorous transport and medicine containing the same” (Kyowa Hakko Kirin Co., Ltd., priority 2003, dated 2012).
